The test system of experiment [1] is M. tuberculosis rrl mutant C-401. In kind it is cell-based, Mycobacterium tuberculosis.
Experiment [2] concerns M. tuberculosis. In kind it is cell-based, Mycobacterium tuberculosis.
In experiment [3] the test system is M. tuberculosis. As to conditions: tlyA mutants 315-A, C-202 and C-211; cited from earlier work.

This is an account of results in patent publication US20100292137A1, “Antibiotics and Methods For Producing Them” (priority 2006, published 2010).

Read-outs that look alike come from different tables or passages of the source.

In the case of capreomycin, the “effect on growth rate” value in experiment [1] is given as “do not noticeably slow the growth rate”.

As for `NCC[C@H](O)C(=O)N[C@@H]1C[C@H](N)[C@@H](O[C@H]2O[C@H](CN)[C@@H](O)[C@H](O)[C@H]2O)[C@H](O)[C@H]1O[C@H]1O[C@H](CO)[C@@H](O)[C@H](N)[C@H]1O` [amikacin], the susceptibility entry in the experiment on M. tuberculosis [2] and with M. tuberculosis [3] was “susceptible” in each case.
